“Also recorded” adds a separate entry of the source. Like-named read-outs stand apart in the source and are kept apart here.
Key:
Type in all cases: physicochemical
[1] = Solubility in PBS 7.4 and FaSSIF solutions; conditions: thermodynamic from solid
Text: The amorphous samples of the compound represented by formula (I) and the crystal form I samples of the dihydrochloride salt of the compound represented by formula (I) obtained in the present disclosure were further evaluated for solubility in PBS 7.4 and FaSSIF solutions.

[2] = Log D
[3] = Hygroscopicity by dynamic vapor sorption (DVS); conditions: 25° C.
Experimental: DVS is dynamic vapor sorption: Surface Measurement Systems advantage 2 is used, the humidity starts from 50%, the humidity range is 0%-95%, and the step size is 10%. The judgment standard is that the mass change is less than 0.01% within 10000 min, and two cycles are performed. Surface Measurement Systems advantage 2 was used, the experiment was carried out at 25° C. with humidity starting from 50%, the humidity range observed was 0%-95%, the step size was 10%, and the judgment standard was that the mass change was less than 0.01% within 10000 min, and two cycles were performed.

[4] = Influencing factors stability (heating, light illumination, high humidity; spread and uncovered, 20 days)
[5] = Long-term stability, 25° C., 60% RH, 9 months; conditions: for Purity % 3 months / Purity % 9 months / Purity Initial: 60% RH
Experimental: Example 13: Three batches of the crystal form I of the dihydrochloride salt of the compound of formula (I) were subjected to a long-term stability investigation of 9 months under the conditions of 25° C±2° C., 60%RH±5%RH.

[6] = XRPD of sample taken out during DSC temperature rise
Text: According to X-ray powder diffraction detection, the crystal form is crystal form I, and the XRPD pattern thereof is shown in FIG. 1.

[7] = light illumination (4500 Lux), 4 days
[8] = light illumination (4500 Lux), 10 days
[9] = light illumination (4500 Lux), 20 days

With CCCCOc1nc(N)c2cnn(Cc3ccc(CN4CCCC4)cc3)c2n1.Cl.Cl [crystal form I, 6-butoxy-1-(4-(pyrrolidin-1-ylmethyl)benzyl)-1H-pyrazolo[3,4-d]pyrimidin-4-amine dihydrochloride] the solubility ([1]; FaSSIF solution, fassif, read-out: FasSIF Solubility) was 1250 µg/mL, the solubility ([1]; PBS 7.4, pH 7.4, aqueous buffer, read-out: PBS 7.4 Solubility) was 50 µg/mL and the logD [2] was 1.17. The “DVS weight change 0.0% RH-95.0% RH” value ([3]; 0.0% RH-95.0% RH) was 9.19%, the “DVS weight change 10%RH-90.0%RH” value ([3]; 10%RH-90.0%RH) was 6.628% and the “Crystal form before and after DVS (XRPD)” value ([3]; DVS two cycles, dihydrochloride) was “did not change; also recorded: has not changed; also recorded: unchanged”. For the same molecule, the “hygroscopicity (in words)” value ([3]; DVS, dihydrochloride) was “slightly hygroscopic; also recorded: (with hygroscopicity)”, the Maximum single impurity ([4]; 0 day) was 0.11% and the Purity ([4]; 0 day) was 99.47%. For the same molecule, the Total impurities ([4]; 0 day) was 0.53%, the Maximum single impurity ([4]; 40° C., 4 days) was 0.11% and the Purity ([4]; 40° C., 4 days) was 99.49%. The Total impurities ([4]; 40° C., 4 days) was 0.51%, the Maximum single impurity ([4]; 40° C., 10 days) was 0.12% and the Purity ([4]; 40° C., 10 days) was 99.52%. The Total impurities ([4]; 40° C., 10 days) was 0.48%, the Maximum single impurity ([4]; 40° C., 20 days) was 0.12% and the Purity ([4]; 40° C., 20 days) was 99.46%. The Total impurities ([4]; 40° C., 20 days) was 0.54%, the Maximum single impurity ([4]; 60° C., 4 days) was 0.15% and the Purity ([4]; 60° C., 4 days) was 99.44%. The Total impurities ([4]; 60° C., 4 days) was 0.56%, the Maximum single impurity ([4]; 60° C., 10 days) was 0.11% and the Purity ([4]; 60° C., 10 days) was 99.53%. The Total impurities ([4]; 60° C., 10 days) was 0.47%, the Maximum single impurity ([4]; 60° C., 20 days) was 0.11% and the Purity ([4]; 60° C., 20 days) was 99.42%. For the same molecule, the Total impurities ([4]; 60° C., 20 days) was 0.58%, the Maximum single impurity ([4]; 75% RH, 4 days) was 0.15% and the Purity ([4]; 75% RH, 4 days) was 99.38%. For the same molecule, the Total impurities ([4]; 75% RH, 4 days) was 0.62%, the Maximum single impurity ([4]; 75% RH, 10 days) was 0.12% and the Purity ([4]; 75% RH, 10 days) was 99.53%. For the same molecule, the Total impurities ([4]; 75% RH, 10 days) was 0.47%, the Maximum single impurity ([4]; 75% RH, 20 days) was 0.11% and the Purity ([4]; 75% RH, 20 days) was 99.47%. The Total impurities ([4]; 75% RH, 20 days) was 0.53%, the Maximum single impurity ([4]; 90% RH, 4 days) was 0.11% and the Purity ([4]; 90% RH, 4 days) was 99.46%. The Total impurities ([4]; 90% RH, 4 days) was 0.54%, the Maximum single impurity ([4]; 90% RH, 10 days) was 0.12% and the Purity ([4]; 90% RH, 10 days) was 99.54%. It also gave a Total impurities ([4]; 90% RH, 10 days) of 0.46%, a Maximum single impurity ([4]; 90% RH, 20 days) of 0.11% and a Purity ([4]; 90% RH, 20 days) of 99.52%. It also gave a Total impurities ([4]; 90% RH, 20 days) of 0.48%, a Maximum single impurity [4, 7] of 0.14% and a Purity [4, 7] of 99.45%. It also gave a Total impurities [4, 7] of 0.55%, a Maximum single impurity [4, 8] of 0.11% and a Purity [4, 8] of 99.54%. It also gave a Total impurities [4, 8] of 0.46%, a Maximum single impurity [4, 9] of 0.12% and a Purity [4, 9] of 99.41%. The Total impurities [4, 9] was 0.59%, the “stability under the influencing factor conditions (in words)” value ([4]; light illumination, 40° C., 60° C., 75% RH, 90% RH, 20 days) was “good” and the “physical and chemical stability, long-term (in words)” value ([5]; 25° C., 60% RH for 9 months) was “good”. The “Purity % 3 months” value ([5]; Batch 1, 25° C., 3 months) was 99.52%, the “Purity % 3 months” value ([5]; Batch 1, 25° C., 3 months as printed, column between 3 and 9 months) was 99.57% and the “Purity % 9 months” value ([5]; Batch 1, 25° C.) was 99.50%. The “Purity Initial” value ([5]; Batch 1, 25° C.) was 99.57%, the “Purity % 3 months” value ([5]; Batch 2, 25° C., 3 months) was 99.50% and the “Purity % 3 months” value ([5]; Batch 2, 25° C., 3 months as printed, column between 3 and 9 months) was 99.48%. The “Purity % 9 months” value ([5]; Batch 2, 25° C.) was 99.48%, the “Purity Initial” value ([5]; Batch 2, 25° C.) was 99.53% and the “Purity % 3 months” value ([5]; Batch 3, 25° C., 3 months) was 99.38%. The “Purity % 3 months” value ([5]; Batch 3, 25° C., 3 months as printed, column between 3 and 9 months) was 99.33%, the “Purity % 9 months” value ([5]; Batch 3, 25° C.) was 99.40% and the “Purity Initial” value ([5]; Batch 3, 25° C.) was 99.44%. The “crystal form before and after temperature rise (XRPD)” value ([6]; raised to 150° C.) was “did not change” and the “crystal form before and after temperature rise (XRPD)” value ([6]; raised to 175° C.) was “did not change”.

Source: patent US20210188856A1, “CRYSTAL FORM OF HYDROCHLORIDE OF PYRAZOLOHETEROARYL DERIVATIVE AND PREPARATION METHOD” (JIANGSU HENGRUI MEDICINE CO., LTD., priority 2018, published 2021)
